Measured values: US12138300B2, “Methods and compositions for inducing neural plasticity” (CASE WESTERN RESERVE UNIVERSITY, priority 2018, dated 2024)

Assays:
stroke mice [1] = assay: Computer automated open field locomotion analysis in stroke mice; assay type: in vivo, mouse
Protocol: First, the efficacy of post-stroke ISP treatment in the C57BL/6 mouse was tested using a proximal middle cerebral artery occlusion (pMCAO) model. Three cohorts of mice (n=59) were subjected to MCAO surgery to induce a large stroke in both striatal and cortical tissue, mimicking a human “malignant” stroke, which tends to be fatal in humans. […]
To test the timing of ISP administration relative to the time of injury, and the corresponding effect on recovery, adult C57bl/6J female and male mice were subjected to transient proximal MCAO surgery (35 min) as described above. […]
Mice motor activities were assessed using Accuscan activity monitor (Columbus, OH, USA) one day before and 3, 7, 14, 21, 35 and 42 days after tMCAO as previously described. […] To avoid observer bias, this locomotor test was automatically monitored by the computer and software. Locomotor activity was calculated by automated Versamax software (Accuscan, Columbus, OH, USA). The following variables were measured: (A) horizontal activity (the total number of beam interruptions that occurred in the horizontal sensors); (B) total distance traveled (cm, the distance traveled by the animals); (C) Vertical activity (the total number of beam interruptions that occurred in vertical sensors).

adult NSCs = assay: Migration of neural stem cells on CSPGs (aggrecan coating); assay type: cell-based, mouse; conditions: 2.5 μM peptide, 21 hours, with or without aggrecan coating
Text: Primary stem cells were obtained from C57BL/6J mice at 5 weeks of age. After euthanization, whole brains were immediately harvested and dissected under microscope to obtain the subventricular zone (SVZ) tissue. After mechanical dissociation with a stab knife, the tissue fragment were processed using trypsin and resuspended as individual cells at a density of 10^4 cell/cm^2 in neurobasal media with growth factors (epidermal growth factor and basic fibroblast growth factor) (NBM-GF). Subsequent passaging of cells were performed using Accutase® (innovative #AT-104, CA, USA) every 7 days until the cells established viable lines, and cellular debris was naturally diminished after each passage. At day 4 of each passage, the proliferating spheres were fed with NBM-GF. We used neurospheres at passage P3-P8 in this study.
To determine the effects of CSPGs on the migration of neural stem cells in vitro, flat-bottom 48-well plates were first coated with poly-L-lysine overnight, followed by a rinsing with water. Aggrecan (A1960, sigma) were coated onto the 48-well plates at the concentration of 1 ug/ml and 10 ug/ml diluted in sterile water overnight, followed by a rinsing with water. The control wells contained poly-L-lysine alone. […] The inner area and total area of neurospheres were measured by ImageJ software. […]

WT primary NSCs = assay: Neural stem cell differentiation assay, neurite outgrowth (MAP2 immunostaining); assay type: cell-based, mouse; conditions: 2.5 μM peptide, differentiated in vitro for 5 days
Protocol: Briefly, glass coverslips in an untreated 24-well plate were coated with poly-ornithine and laminin After splitting neurospheres during passaging, individual cells were plated at a density of 10^4 cells/cm^2 in 500 μl of NBM-GF. Every other day, 250 μl of media was removed from each well and 300 μl of fresh NBM-GF was added. When the attached cell reached approximately 70% confluency (around day 5), all NBM-GF within each well was gently removed and immediately replaced with neurobasal media without growth factor (NBM) with ISP peptide (2.5 μM) or scramble peptide (2.5 μM). Each well was fed daily by removing 250 μl of the media and adding 300 μl of the media containing ISP or scramble peptide. On Day 5 after complete replacement of the NBM-GF, the wells were fixed with 4% paraformaldehyde for 15 min at room temperature and stored in phosphate-buffered saline at 4° C. until staining.
Cells cultured on coverslip were fixed in 4% PFA for 15 min, permeabilized in 0.1% Triton-X100 for 10 min and then incubated in 10% normal goat serum for 1 hour. […] Three coverslips were analyzed per condition. Random selections of field in each coverslip were chosen and imaged by Stereo Investigator Software (MBF Bioscience, Williston, VT, USA), and quantitative data was obtained by using NIH ImageJ software.

stroke mice [2] = assay: Adhesive removal test (sensorimotor function) in stroke mice; assay type: in vivo, mouse; conditions: post-stroke treatment
Protocol: This test was performed on days 7, 14, 21, 28, 35 and 42 post-stroke in order to examine the sensorimotor deficits. Each mice was placed into transparent cylinder (15 cm diameter) during a habituation period of 1 min Thereafter, two different colored adhesive labels (2.5 mm diameter made by punch, Tough Spots) were applied with equal pressure on each mouse's forepaw. The times required to remove the adhesive labels were measured with a maximum of 2 min. To achieve an optimum level of performance, mice should be trained for 4 days before surgery.

stroke mice [3] = assay: Survival of stroke mice after tMCAO with post-stroke treatment; assay type: in vivo, mouse
Protocol: First, the efficacy of post-stroke ISP treatment in the C57BL/6 mouse was tested using a proximal middle cerebral artery occlusion (pMCAO) model. Three cohorts of mice (n=59) were subjected to MCAO surgery to induce a large stroke in both striatal and cortical tissue, mimicking a human “malignant” stroke, which tends to be fatal in humans. Stroke mice were subjected to T2 weighted MRI scanning to determine the size of the stroke injury and were grouped blindly into two equally distributed groups that received either daily vehicle (5% DMSO) or daily ISP (20 μg/mouse/day or 30 μg/mouse/day S.C. injections) treatment starting from 24 hours after stroke onset for 6 weeks.
Transient middle cerebra artery occlusion (tMCAO) was induced in male C57BL/6 mice (12 weeks old, 25-30 g) by intraluminal occlusion of the left MCA for 45 min with silicone rubber-coated monofilament (Cat. 602212PK10Re and 602312PK10Re, Doccol Corporation). Briefly, mice were anesthetized with isoflurance. Body temperature was monitored and maintained at 37±0.5° C. by homeothermic blanket control unit (Harvard apparatus). To minimize animal's pain, mice were subcutaneously injected with buprenorphine. […] To ensure consistent and successful blockage of MCA, regional cerebral blood flow was monitored in all stroke animals by Laser Doppler flowmetry (PeriFlux system 5000, Perimed, Sweden). […]

stroke mice [4] = assay: Anterograde BDA tracing and quantification of corticospinal tract axonal sprouting; assay type: in vivo, mouse; conditions: post-stroke treatment; crossed CST fibers at cervical spinal cord, BDA tracing
Protocol: Four weeks after tMCAO, mice were anesthetized with 1.5% isoflurane/oxygen mixture and stabilized in a stereotaxic frame. 1.5 μl of the biotin dextran amine (BDA, MW10,000; 10% in PBS, invitrogen) were injected at three sites in the contralesional cortex (coordinates: 1. A/P 0.0 mm, M/L −2 mm, D/V −1 mm; 2.A/P 0.5 mm, M/L-1.5 mm, D/V-1 mm; 3. A/P 0.5 mm, M/L −2 mm, D/V −1 mm) Two weeks later, brain and cervical spinal cord were harvested after cardiac perfusion with PBS followed by 4% paraformaldehyde. After post-fix overnight in 4% paraformaldehyde and cryoprotection in 20% and 30% sucrose, coronal brain sections and transverse spinal cord sections were cut at 30 μm thickness. For the detection of BDA, sections were rinsed in 0.1M PB and incubated in 0.3% H2O2 for 30 min to inactivate endogenous peroxidase, followed by incubation for 2 hours with a Vectastain® ABC kit (Vector Laboratories, Burlingame, CA, USA). Staining was developed with 2,3′ diaminobenziine tetrahydrochloride (0.5 mg/ml in 0.1M PB). The number and length of midline-cross BDA+ fiber were assessed in a blinded manner Sections were analyzed with ImageJ software.

stroke mice [5] = assay: Barnes maze test (cognitive function) in stroke mice; assay type: in vivo, mouse; conditions: 4 weeks after stroke; vs vehicle
Text: The spatial memory of ischemic mice was examined using Barnes maze (Stoelting Company, WoodDale, IL, USA) 28 days after tMCAO. The maze consists of a 91.5 cm diameter circular platform with 20 holes around the perimeter. Mice were discouraged to idle around aimlessly by blowing fans and a bright light above the platform. At day 0, mice were gently guided to enter the target hole after removing the start chamber. At day 1, mice were trained for 4 trials in 2 sessions to find the escape tunnel placed under the target hole. Once mice entered the target hole, the hole was covered and mice were allowed to stay in it for 2 min. If mice could not locate the target hole within 5 min, mice were guided by the observer to enter the target hole. At day 2, one trial was run and video-taped until the mouse getting into the target hole or stopped at 5 mins when the mouse could not locate the target hole. Time spent to locate the escaping hole and error numbers in finding the hiding hole made by the mouse were measured by an observer in a blinded fashion.

stroke mice [6] = assay: DCX+ neuroblast formation in post-stroke mice; assay type: in vivo, mouse; conditions: post-stroke treatment; vs vehicle
stroke mice [7] = assay: Quantification of brain atrophy in stroke animals; assay type: in vivo, mouse; conditions: post-stroke 6-week brain sections
Protocol: The post-stroke 6-week brain sections (25 μm) were mounted on PLL-coated slides. The sections were rehydrated in KH2PO4 buffer (pH 4.5) for 10 min, and then stained in pre-warm 10% Giemsa solution for 30 min at 42° C. After a brief rinse with KH2PO4 buffer, sections were dehydrated in absolute ethanol, cleared in xylene and mounted with Histoseal. A set of serial sections was imaged by Path Scan Enabler IV slide scanner. Contralateral and ipsilateral brain areas were quantified using ImageJ software. The calculation formula of atrophy rate is as follows: Σ (contralateral brain area−ipsilateral brain area)/Σ contralateral brain area×100%.

Sequence | locomotor function (total distance travelled, total horizontal activity, total vertical activity) (stroke mice [1]; treatment from 24 h post-stroke, 2-4 weeks after stroke, vs vehicle) | open field locomotion performance (total distance, horizontal activity, vertical activity), delayed treatment (stroke mice [1]; treatment initiated 7 days post stroke, 1 mg/kg/day for 3 weeks, by week four) | migration of adult NSCs (normalized migration index) (adult NSCs) | neurite outgrowth (neurite length) in differentiated NSCs (WT primary NSCs) | speed of tape removal, affected limb (stroke mice [2]; affected front paw, vs vehicle) | tape removal, unaffected limb (stroke mice [2]; unaffected front paw) | survival of stroke animals over time (stroke mice [3]; continuous post-stroke treatment started 24 hours post-stroke, tMCAO mice, vehicle 44.828%) [%] | survival rate of stroke animals (stroke mice [3]; treatment initiated at 24 hours post stroke, daily S.C., vs vehicle) | axonal sprouting from contralateral corticospinal tract (stroke mice [4]) | error trials to find the escape hole in the Barnes maze (stroke mice [5]) | time to find the escape hole in the Barnes maze (stroke mice [5]) | DCX+ neuroblasts near the lateral ventricle and adjacent striatal tissues (stroke mice [6]) | chronic atrophy of brain after stroke (stroke mice [7])
GRKKRRQRRRCDMAEHMERLKANDSLKLSQEYESI [ISP] | significantly increased | significant effects in improved performance | alleviates the inhibition of CSPGs on NSCs migration | consistently increased neurite outgrowth | significantly improved the speed | without any obvious effects | 67.742 | improve the survival rate of stroke animals significantly | enhanced | less error trials | significantly less time | enhanced | decreases the chronic atrophy of brain
GRKKRRQRRRCIREDDSLMLYALAQEKKESNMHES [scrambled ISP peptide, reference compound] | – | – | – | no effects | – | – | – | – | – | – | – | – | –
